According to ChEMBL document CHEMBL1671675, “Population pharmacokinetics of ganciclovir after intravenous ganciclovir and oral valganciclovir administration in solid organ transplant patients infected with cytomegalovirus” (Antimicrob Agents Chemother, 2009):

Key:
Homo sapiens [1] = experiment: (§1) Drug absorption in solid organ transplant patient exhibiting […] creatinine clearance infected with cytomegalovirus assessed as first-order absorption rate constant at 5 mg/kg, iv bid for 5 days followed by 900 mg of oral valganciclovir dosed twice daily for 16 days dose adjustment for renal function; type: ADME, organism-based; design: dose 5 mg/kg, route oral; conditions: in vivo
Homo sapiens [2] = experiment: (§2) Clearance in solid organ transplant patient exhibiting […] creatinine clearance infected with cytomegalovirus at 5 mg/kg, iv bid for 5 days followed by 900 mg of oral valganciclovir dosed twice daily for 16 days dose adjustment for renal function by basal population pharmacokinetic model; type: ADME, organism-based; design: dose 5 mg/kg, route oral; conditions: in vivo
Homo sapiens [3] = experiment: as §2, with “Central volume of distribution” for “Clearance”, “final” for “basal”; type: ADME, organism-based; design: dose 5 mg/kg, route oral; conditions: in vivo
Homo sapiens [4] = experiment: as §1, with “function by basal population pharmacokinetic model” for “function”; type: ADME, organism-based; design: dose 5 mg/kg, route oral; conditions: in vivo
Homo sapiens [5] = experiment: as §2, with “Central volume of distribution” for “Clearance”; type: ADME, organism-based; design: dose 5 mg/kg, route oral; conditions: in vivo
Homo sapiens [6] = experiment: as §2, with “Intercompartmental clearance between central and peripheral compartments” for “Clearance”; type: ADME, organism-based; design: dose 5 mg/kg, route oral; conditions: in vivo
[7] = (§3) Bioavailability in solid organ transplant patient exhibiting […] creatinine clearance infected with cytomegalovirus at 5 mg/kg, iv bid for 5 days followed by 900 mg of oral valganciclovir dosed twice daily for 16 days dose adjustment for renal function by final population pharmacokinetic model; type: ADME, organism-based; conditions: human, in vivo
Homo sapiens [8] = experiment: Clearance in solid organ transplant patient exhibiting […] creatinine clearance infected with cytomegalovirus at 5 mg/kg, iv bid for 5 days followed by 900 mg of oral valganciclovir dosed twice daily for 16 days dose adjustment for renal function by final population pharmacokinetic model; type: ADME, organism-based; design: dose 5 mg/kg, route oral; conditions: in vivo
[9] = Bioavailability in solid organ transplant patient exhibiting 57 mL/min creatinine clearance infected with cytomegalovirus at 5 mg/kg, iv bid for 5 days followed by 900 mg of oral valganciclovir dosed twice daily for 16 days dose adjustment for renal function by basal population pharmacokinetic model; conditions: human, in vivo
Homo sapiens [10] = experiment: as §3, with “Intercompartmental clearance between central and peripheral compartments” for “Bioavailability”; type: ADME, organism-based; design: dose 5 mg/kg, route oral; conditions: in vivo

Ka (Homo sapiens [1]): 0.895 h⁻¹
CL (Homo sapiens [2]): 6.34 L/h
Vd (Homo sapiens [3]): 31.9 L
Ka (Homo sapiens [4]): 0.971 h⁻¹
Vd (Homo sapiens [5]): 32 L
CL (Homo sapiens [6]): 9.65 L/h
bioavailability [7]: 82.5%
CL (Homo sapiens [8]): 7.49 L/h
bioavailability [9]: 76%
CL (Homo sapiens [10]): 10.2 L/h
Structure (SMILES): Nc1nc(O)c2ncn(COC(CO)CO)c2n1 [GANCICLOVIR]
